Converted amounts (≈) assume the structure as drawn. The source made the active and inactive calls. No cut-off for these calls is given here.
Experiments:
Candida albicans [1] = assay: Antifungal activity against Candida albicans ATCC SC5314 assessed as change in unknown sterol level at 4 ug/ml incubated for 48 hrs by LC-MS analysis (reference value: 4.3%); format: functional; details: dose 4 µg/ml
Candida albicans [2] = assay: Induction of morphological changes in Candida albicans assessed as leakage of cellular contents at 4 ug/ml measured after 72 hrs by TEM analysis; format: functional, organism-based; details: dose 4.0 µg/ml
Aspergillus fumigatus = assay: Antifungal activity against Aspergillus fumigatus KM8001 assessed as fungal growth inhibition measured after 72 hrs by CLSI protocol based liquid medium dilution method; format: functional
Pichia kudriavzevii = assay: Antifungal activity against Candida krusei ATCC 6258 assessed as fungal growth inhibition measured after 72 hrs by CLSI protocol based liquid medium dilution method; format: functional
Mus musculus [3] = assay: In vivo antifungal activity against Candida albicans ATCC SC5314 infected mouse assessed as reduction in fungal infection region at 4 mg/kg, ip administered ever other day for 12 days; format: functional, organism-based; details: time 12.0 day
[4] = Toxicity in mouse infected with Candida albicans ATCC SC5314 assessed as pathological changes in lung at 4 mg/kg, ip administered ever other day for 12 days by hematoxylin and eosin staining based histopathological analysis; format: organism-based; details: in vivo, 288 h, time 12 day
Candida albicans [5] = assay: Induction of apoptosis in Candida albicans ATCC SC5314 cells assessed as necrotic cells at 8 ug/ml incubated for 72 hrs by Annexin V-FITC/PI staining based flow cytometry method (reference value: 3.76%); format: functional; details: dose 8 µg/ml
Candida albicans [6] = assay: Antifungal activity against Candida albicans ATCC SC5314 assessed as decrease in ergosterol content at 4 ug/ml incubated for 48 hrs by LC-MS analysis (reference value: 90.6%); format: functional; design: scale not given: the % may be the effect or the level left; details: dose 4 µg/ml
Candida albicans [7] = assay: Induction of morphological changes in Candida albicans assessed as structural damage in fungal cell wall at 4 ug/ml measured after 48 hrs by TEM analysis; format: functional, organism-based; details: dose 4.0 µg/ml
Candida albicans [8] = assay: Antifungal activity against Candida albicans ATCC SC5314 assessed as change in squalene level at 4 ug/ml incubated for 48 hrs by LC-MS analysis; format: functional; details: dose 4 µg/ml
Candida albicans [9] = assay: Antifungal activity against fluconazole resistant Candida albicans strain 103 assessed as fungal growth inhibition measured after 72 hrs by CLSI protocol based liquid medium dilution method; format: functional
Candida albicans [10] = assay: Antifungal activity against fluconazole resistant Candida albicans strain 17# assessed as fungal growth inhibition measured after 72 hrs by CLSI protocol based liquid medium dilution method; format: functional
Candida albicans [11] = assay: Antifungal activity against Candida albicans ATCC SC5314 assessed as change in eburicol level at 4 ug/ml incubated for 48 hrs by LC-MS analysis (reference value: 1.4%); format: functional; details: dose 4 µg/ml
Candida albicans [12] = assay: Induction of morphological changes in Candida albicans assessed as appearance of edema cavitation at 4 ug/ml measured after 72 hrs by TEM analysis; format: functional, organism-based; details: dose 4.0 µg/ml
Candida albicans [13] = assay: Induction of morphological changes in Candida albicans assessed as enlargement of nucleus at 4 ug/ml measured after 72 hrs by TEM analysis; format: functional, organism-based; details: dose 4.0 µg/ml
[14] = Toxicity in mouse infected with Candida albicans ATCC SC5314 assessed as pathological changes in kidney at 4 mg/kg, ip administered ever other day for 12 days by hematoxylin and eosin staining based histopathological analysis; format: organism-based; details: in vivo, 288 h, time 12 day
[15] = Drug uptake in fluconazole resistant Candida albicans strain 901 at 4 ug/ml by fluorescence microscopy; format: ADME; details: dose 4 µg/ml
Mus musculus [16] = assay: In vivo antifungal activity against Candida albicans ATCC SC5314 infected mouse assessed as regular arrangement of endothelial tissue at 4 mg/kg, ip administered ever other day for 12 days by hematoxyin-eosin staining based microscopic analysis; format: functional, organism-based; details: time 12.0 day
Candida albicans [17] = assay: Antifungal activity against Candida albicans ATCC 10231 assessed as fungal growth inhibition measured after 72 hrs by CLSI protocol based liquid medium dilution method; format: functional
Candida albicans [18] = assay: Antifungal activity against fluconazole resistant Candida albicans strain 901 assessed as decrease in fungal cell density at 4 ug/ml by fluorescence microscopy; format: functional, organism-based; details: dose 4.0 µg/ml
Mus musculus [19] = assay: In vivo antifungal activity against Candida albicans ATCC SC5314 infected mouse model assessed as reduction in nuclear aggregation at 4 mg/kg, ip administered ever other day for 12 days by hematoxyin-eosin staining based microscopic analysis; format: functional, organism-based; details: time 12.0 day
Candida albicans [20] = assay: Antifungal activity against fluconazole resistant Candida albicans strain CaR assessed as fungal growth inhibition measured after 72 hrs by CLSI protocol based liquid medium dilution method; format: functional
Candida albicans [21] = assay: Induction of apoptosis in Candida albicans ATCC SC5314 cells assessed as early apoptotic cells at 8 ug/ml incubated for 72 hrs by Annexin V-FITC/PI staining based flow cytometry method (reference value: 0.56%); format: functional; details: dose 8 µg/ml
Squalene epoxidase ERG1 = target: T1, Squalene epoxidase ERG1 (Candida albicans, UniProt Q92206); assay: Inhibition of SE in Candida albicans ATCC SC5314 incubated for 30 mins using squalene as substrate in presence of NADPH by spectrophotometer analysis
T1 sequence (Q92206 whole entry): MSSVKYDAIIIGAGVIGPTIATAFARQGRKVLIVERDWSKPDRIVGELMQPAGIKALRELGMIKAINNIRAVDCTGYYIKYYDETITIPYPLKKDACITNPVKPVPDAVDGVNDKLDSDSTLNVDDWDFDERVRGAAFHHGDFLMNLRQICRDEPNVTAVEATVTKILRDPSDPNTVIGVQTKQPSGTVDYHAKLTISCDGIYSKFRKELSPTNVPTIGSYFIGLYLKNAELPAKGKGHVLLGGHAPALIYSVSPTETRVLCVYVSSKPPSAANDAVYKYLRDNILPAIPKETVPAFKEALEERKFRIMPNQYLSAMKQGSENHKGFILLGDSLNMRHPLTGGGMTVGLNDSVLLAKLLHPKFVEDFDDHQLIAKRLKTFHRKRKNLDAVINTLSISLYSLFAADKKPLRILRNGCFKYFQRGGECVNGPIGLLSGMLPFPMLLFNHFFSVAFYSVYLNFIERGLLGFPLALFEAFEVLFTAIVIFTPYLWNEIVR

[22] = target: Lanosterol 14-alpha demethylase (Candida albicans (strain SC5314 / ATCC MYA-2876) (Yeast), UniProt P10613); assay: Inhibition of CYP51 in Candida albicans ATCC SC5314 incubated for 30 mins using eburicol as substrate in presence of NADPH by HPLC analysis
Sequence of Lanosterol 14-alpha demethylase (P10613 whole entry): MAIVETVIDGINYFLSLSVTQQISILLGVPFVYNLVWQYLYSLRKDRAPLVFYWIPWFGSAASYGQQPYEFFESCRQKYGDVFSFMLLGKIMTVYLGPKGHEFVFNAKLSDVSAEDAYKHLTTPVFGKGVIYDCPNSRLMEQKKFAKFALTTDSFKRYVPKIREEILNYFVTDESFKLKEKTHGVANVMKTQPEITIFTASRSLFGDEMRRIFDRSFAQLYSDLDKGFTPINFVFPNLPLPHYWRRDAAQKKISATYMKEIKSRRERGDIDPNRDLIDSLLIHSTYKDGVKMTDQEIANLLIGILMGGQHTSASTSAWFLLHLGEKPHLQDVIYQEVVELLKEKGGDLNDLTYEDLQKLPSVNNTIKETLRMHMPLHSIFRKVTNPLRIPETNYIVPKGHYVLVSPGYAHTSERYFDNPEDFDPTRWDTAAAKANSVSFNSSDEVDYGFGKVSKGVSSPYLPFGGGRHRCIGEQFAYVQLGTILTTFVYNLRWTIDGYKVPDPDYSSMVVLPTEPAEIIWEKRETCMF

[23] = Hepatotoxicity in mouse infected with Candida albicans ATCC SC5314 assessed as change in plasma ALT level at 4 mg/kg, ip administered ever other day for 12 days; format: toxicity, organism-based; details: in vivo, 288 h, time 12 day
Candida albicans [24] = assay: Induction of apoptosis in Candida albicans ATCC SC5314 cells assessed as live cells at 8 ug/ml incubated for 72 hrs by Annexin V-FITC/PI staining based flow cytometry method (reference value: 95.56%); format: functional; details: dose 8 µg/ml
[25] = Nephrotoxicity in mouse infected with Candida albicans ATCC SC5314 assessed as change in plasma BUN level at 4 mg/kg, ip administered ever other day for 12 days; format: toxicity, organism-based; details: in vivo, 288 h, time 12 day
Candida albicans [26] = assay: Induction of apoptosis in Candida albicans ATCC SC5314 cells assessed as late apoptotic cells at 8 ug/ml incubated for 72 hrs by Annexin V-FITC/PI staining based flow cytometry method (reference value: 0.12%); format: functional; details: dose 8 µg/ml
Mus musculus [27] = assay: In vivo antifungal activity against Candida albicans ATCC SC5314 infected mouse assessed as increase in body weight at 4 mg/kg, ip administered ever other day for 12 days; format: functional, organism-based; details: time 12.0 day

CC(C)[C@H](NC(=O)c1cccc2c1OCCO2)C(=O)N[C@@H](Cn1cncn1)c1ccccc1
Activity (Candida albicans [1]): 6.4% | Activity (Candida albicans [2]): Active | MIC50 (Aspergillus fumigatus): 2 µg/mL (≈ 4.45 µM) | MIC50 (Pichia kudriavzevii): 0.25 µg/mL (≈ 0.556 µM) | Activity (Mus musculus [3]): Active | Activity [4]: Non-Toxic | Activity (Candida albicans [5]): 43.31% | Activity (Candida albicans [6]): 20.8% | Activity (Candida albicans [7]): Active | Activity (Candida albicans [8]): 27.5% | MIC50 (Candida albicans [9]): 0.5 µg/mL (≈ 1.11 µM) | MIC50 (Candida albicans [10]): 1 µg/mL (≈ 2.22 µM) | Activity (Candida albicans [11]): 28.9% | Activity (Candida albicans [12]): Active | Activity (Candida albicans [13]): Active | Activity [14]: Non-Toxic | Drug uptake [15]: Active | Activity (Mus musculus [16]): Active | MIC50 (Candida albicans [17]): 0.125 µg/mL (≈ 0.278 µM) | Activity (Candida albicans [18]): Active | Activity (Mus musculus [19]): Active | MIC50 (Candida albicans [20]): 0.5 µg/mL (≈ 1.11 µM) | Activity (Candida albicans [21]): 0.41% | IC50 (Squalene epoxidase ERG1): 621 nM | IC50 [22]: 220 nM | Activity [23]: 50.5 IU/L | Activity (Candida albicans [24]): 54.5% | Activity [25]: 15.8 mmol/L | Activity (Candida albicans [26]): 1.78% | Activity (Mus musculus [27]): Active
